Assay in all cases: NCI anticancer screen, dose series, 48 h
Test [1] relates to BT-549.
Test [2] concerns CAKI-1.
Test [3] deals with CCRF-CEM.
In test [4] the test system is DU-145.
In test [5] the test system is Hs-578T.
For test [6], the system named is KM12.
The subject of test [7] is M14.
The test system of test [8] is MCF7.
The subject of test [9] is MDA-MB-231.
In test [10] the test system is RXF 393.
In test [11] the test system is SF-295.
Test [12] deals with SK-MEL-2.
Test [13] has as its system SK-MEL-5.
The test system of test [14] is SK-OV-3.
Test [15] deals with SW-620.
Test [16] concerns UACC-62.
Test [17] has as its system UO-31.
In test [18] the test system is SN12C.

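Where inhibition never reached the appropriate level, the endpoint shown equals the highest concentration tested. Otherwise, values were interpolated linearly from a five-concentration, 48-hour dose response in 96-well plates. GI50 is the concentration that inhibits growth by half.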 Calls of active or inactive are those of the source. Cut-off read from the data, not from the text of the source: active = GI50 up to about 1.1 µM and inactive = higher.

For `O=C(O)CC(NC(=O)Nc1ccc([N+](=O)[O-])cc1)C(=O)Nc1ccc([N+](=O)[O-])cc1` (stereo not drawn), the GI50 in [1] was > 100 µM (inactive); in [2], > 100 µM (inactive); in test [3], > 100 µM (inactive); in [4], > 100 µM (inactive); in [5], 50.2 µM (inactive); in test [6], > 100 µM (inactive). Besides, the GI50 in test [7], in test [8], in [9], in test [10], in [11] and in test [12] was > 100 µM (inactive) in each case. Moreover, the GI50 in test [13] is 50.8 µM (inactive); in test [14] it was > 100 µM (inactive); in test [15] it was > 100 µM (inactive); in test [16] it was 0.69 µM (active); in [17], > 100 µM (inactive).
On to `O=C(O)c1ccc(Nc2nc3cc(C(F)(F)F)ccc3nc2C(=O)O)cc1`, for which the GI50 in [1], in [2], in [4], in test [5], in test [6] and in test [8] was > 100 µM (inactive) throughout. The GI50 in test [9], in test [10], in [11], in [12], in [13] and in [18] was > 100 µM (inactive) each time. Moreover, the GI50 in [15] and in test [17] was > 100 µM (inactive) throughout.
Turning to `Cc1cn(CC2=NCC(C)N2)c(=O)[nH]c1=O` (stereo not drawn), the GI50 in [1], in [4], in test [5], in test [7], in test [8] and in test [9] was > 100 µM (inactive) each time. Moreover, the GI50 in test [10], in test [11], in test [12], in test [13], in [14] and in [18] was > 100 µM (inactive) each time. Further, the GI50 in [15], in test [16] and in test [17] was > 100 µM (inactive) in each case.
On to `CC(=O)c1cccc(NC(=O)C(=O)c2c(O)oc3ccccc3c2=O)c1`, for which the GI50 in [1], in [2], in test [3], in [5], in [6] and in test [7] was > 100 µM (inactive) throughout. The GI50 was > 100 µM (inactive) in test [8]; > 100 µM (inactive) in test [9]; > 100 µM (inactive) in test [10]; > 100 µM (inactive) in test [11]; 10 µM (inactive) in test [12]; > 100 µM (inactive) in test [13]. The GI50 in test [14], in [18], in [15], in test [16] and in test [17] was > 100 µM (inactive) throughout.
On to `CN(c1cn(C2CC[C@@H](CO)O2)c(=O)[nH]c1=O)C1CCCCC1` (stereo partly drawn), for which the GI50 in test [1] is > 100 µM (inactive); in [3] it was > 100 µM (inactive); in [4] it was > 100 µM (inactive); in [5], 30 µM (inactive); in test [6], > 100 µM (inactive); in test [7] it was > 100 µM (inactive). For the same molecule, the GI50 in test [8], in [9], in test [10], in [11], in test [13] and in test [14] was > 100 µM (inactive) each time. In addition, the GI50 in test [18], in test [15], in test [16] and in test [17] was > 100 µM (inactive) each time.
Consider `COC(=O)CCc1cc(OC)c2c(c1)[C@H](C(=O)OC)[C@@H](c1ccc(O)c(OC)c1)O2`, for which the GI50 is 44.8 µM (inactive) in test [1]; 33.8 µM (inactive) in test [3]; > 100 µM (inactive) in test [4]; 38.4 µM (inactive) in test [5]; 30.6 µM (inactive) in [6]; 38.3 µM (inactive) in test [7]. In addition, the GI50 is 49.2 µM (inactive) in [8]; 50.6 µM (inactive) in [9]; 55.8 µM (inactive) in test [10]; 47.1 µM (inactive) in test [11]; 33.1 µM (inactive) in test [12]; 35 µM (inactive) in [13]. Also, the GI50 in [14] was 42.8 µM (inactive); in test [18], 56.9 µM (inactive); in test [15], 47.4 µM (inactive); in test [16], 39.8 µM (inactive); in test [17], 52.1 µM (inactive).
As for `NC(CNO)C(=O)O` (stereo not drawn), the GI50 in [1], in test [2], in [4], in [5], in test [6] and in test [7] was > 100 µM (inactive) in each case. Besides, the GI50 in test [8], in [9], in test [10], in test [11], in test [12] and in test [13] was > 100 µM (inactive) throughout. Also, the GI50 in [14], in test [18], in [15], in test [16] and in [17] was > 100 µM (inactive) each time.
Consider `Cn1c(=O)c2c(nc3[nH]c(=O)c(Br)cn32)n(C)c1=O`, for which the GI50 in test [1], in [2], in test [3], in test [4], in test [5] and in [6] was > 100 µM (inactive) each time. Further, the GI50 in test [7], in test [9], in [10], in test [11], in test [12] and in test [13] was > 100 µM (inactive) throughout. Also, the GI50 in [14], in test [18], in [15], in test [16] and in test [17] was > 100 µM (inactive) each time.
As to `C/C(=N\NC(N)=O)C(CN1CCOCC1)C(c1ccccc1)c1c(O)c2ccccc2oc1=O` (stereo not drawn), the GI50 in test [1], in test [2], in test [3], in test [4], in test [5] and in test [6] was > 100 µM (inactive) each time. Also, the GI50 in test [7], in test [8], in [9], in [12], in test [13] and in test [14] was > 100 µM (inactive) throughout. Besides, the GI50 in test [15], in [16] and in test [17] was > 100 µM (inactive) in each case.
Turning to `CC(C)C1CC(CO)(CNc2cc(Cl)nc(N)n2)C1` (stereo not drawn), the GI50 in test [1] was 65.8 µM (inactive); in [2] it was > 100 µM (inactive); in test [3] it was 75.7 µM (inactive); in test [4] it was > 100 µM (inactive); in test [5] it was 25.6 µM (inactive); in test [6] it was > 100 µM (inactive). The GI50 in test [8] is 15 µM (inactive); in test [9], 94 µM (inactive); in test [10], 19.7 µM (inactive); in [11] it was 6.22 µM (inactive); in test [12], 45.9 µM (inactive); in test [13], 3.55 µM (inactive). Further, the GI50 in [14] is > 100 µM (inactive); in test [18], > 100 µM (inactive); in test [15] it was > 100 µM (inactive); in test [16] it was > 100 µM (inactive); in [17], 54 µM (inactive).
For `O=[N+]([O-])c1cc(-c2ccc([As](=O)(O)O)cc2)ccc1[As](=O)(O)O`, the GI50 in [1], in test [2], in [3], in test [4], in test [5] and in test [6] was > 100 µM (inactive) throughout. Besides, the GI50 in test [7], in [9], in [10], in [11], in [12] and in [13] was > 100 µM (inactive) each time. The GI50 in [18], in test [15], in test [16] and in [17] was > 100 µM (inactive) throughout.
On to `Cc1ccc(C(=O)/C=C2\Nc3ccccc3S\C2=N\CS(=O)(=O)c2ccc(C)cc2)cc1`, for which the GI50 in test [1] is > 10 µM (inactive); in test [2], > 10 µM (inactive); in test [3], > 10 µM (inactive); in test [4], > 10 µM (inactive); in [5] it was 8.43 µM (inactive); in test [6], > 10 µM (inactive). Further, the GI50 in [7] is > 10 µM (inactive); in test [8], 4.3 µM (inactive); in test [9], > 10 µM (inactive); in test [11] it was > 10 µM (inactive); in [13], > 10 µM (inactive); in [14], 6.89 µM (inactive). Moreover, the GI50 in test [18], in test [15] and in test [16] was > 10 µM (inactive) throughout.

Source of the values: ChEMBL document CHEMBL1201862, “PubChem BioAssay data set” (2004).
